Columns and labels:
[1] = test system: blackgrass; assay: Test B pre/postemergence blackgrass; format: in vivo, Alopecurus myosuroides
Procedure, shortened: (§1)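 Response is a visual 0-to-10 score relative to untreated plants, where 0 means no effect and 10 means complete control, taken twelve to sixteen days after application. Treatments went onto soil at planting and onto foliage of 1- to 4-leaf plants, using a surfactant-containing non-phytotoxic solvent.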

[2] = test system: rice; assay: Test B flood test rice; format: in vivo, Oryza sativa; settings: for Plant response rating, Rice (0 to 10 scale, 0 is no effect, 10 is complete control): Rate 62 g/ha; for Plant response rating, Rice (0 to 10 scale, 0 is no effect, 10 is complete control) / Rice plant response rating (0 to 10 scale, 0 is no effect, 10 is complete control): visual evaluation after twelve to sixteen days; for Rice plant response rating (0 to 10 scale, 0 is no effect, 10 is complete control): under heading Pre-emergence
Procedure, shortened: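 Plants were grown to the 2-leaf stage before treatment with test chemical, then held in a greenhouse for twelve to sixteen days. Injury was visually rated against untreated controls on a 0–10 scale, where 0 is no effect and 10 is complete control.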

[3] = test system: morningglory; assay: Test B pre/postemergence morningglory; format: in vivo, Ipomoea hederacea
Procedure, shortened: as §1

[4] = test system: bedstraw; assay: Test B pre/postemergence bedstraw; format: in vivo, Galium aparine; settings: Rate 62 g/ha, Postemergence; scale 0 to 10 (0 no effect, 10 complete control)
Procedure, shortened: as §1

[5] = Postemergence, Rate 250 g/ha, scale 0 to 10
[6] = Postemergence, Rate 500 g/ha, scale of 0 to 10 where 0 is no effect and 10 is complete control
[7] = Preemergence, Rate 62 g/ha, scale of 0 to 10 where 0 is no effect and 10 is complete control
[8] = Preemergence, Rate 125 g/ha, scale of 0 to 10 where 0 is no effect and 10 is complete control
[9] = Preemergence, Rate 250 g/ha, scale 0 to 10, 0 is no effect, 10 is complete control
[10] = Preemergence, Rate 500 g/ha, scale 0 to 10, 0 is no effect, 10 is complete control
[11] = Rate 62 g/ha, Postemergence, scale 0 to 10 (0 no effect, 10 complete control)
[12] = Rate 125 g/ha, Postemergence, scale 0 to 10, 0 is no effect, 10 is complete control
[13] = flood test species, Pre-emergence
[14] = Rate 125 g/ha, flood test species
[15] = Rate 250 g/ha, Pre-emergence (flood test species), scale 0 to 10, 0 is no effect, 10 is complete control
[16] = Rate 500 g/ha, Pre-emergence, flood test species, scale 0 to 10 (0 no effect, 10 complete control)
[17] = Preemergence, Rate 62 g/ha, scale 0 to 10 (0 no effect, 10 complete control)

| SMILES | Blackgrass plant response rating [1, 5] | Blackgrass plant response rating [1, 6] | Plant response rating, Blackgrass [1, 7] | Plant response rating, Blackgrass [1, 8] | Blackgrass plant response rating [1, 9] | Blackgrass plant response rating [1, 10] | Blackgrass plant response rating [1, 11] | Blackgrass plant response rating [1, 12] | Plant response rating, Rice (0 to 10 scale, 0 is no effect, 10 is complete control) [2, 13] | Rice plant response rating (0 to 10 scale, 0 is no effect, 10 is complete control) [2, 14] | Rice plant response rating [2, 15] | Rice plant response rating [2, 16] | Morningglory plant response rating [3, 5] | Morningglory plant response rating [3, 6] | Plant response rating, Morningglory [3, 7] | Plant response rating, Morningglory [3, 8] | Morningglory plant response rating [3, 9] | Morningglory plant response rating [3, 10] | Morningglory plant response rating [3, 11] | Morningglory plant response rating [3, 12] | also measured |
| --- | --- | --- | --- | --- | --- | --- | --- | --- | --- | --- | --- | --- | --- | --- | --- | --- | --- | --- | --- | --- | --- |
| CC(C)N(C(=O)n1oc(=O)n(CNC(=O)c2ccccc2)c1=O)c1ccc(F)cc1 [Compound 445] | 0 | 0 | 0 | 0 | 0 | 1 | 0 | 0 | 0 | 0 | 0 | 0 | 4 | 8 | 0 | 0 | 0 | 0 | 3 | 4 |  |
| COC(OC)C(C)n1c(=O)on(C(=O)N(c2ccc(F)cc2F)C(C)C)c1=O (stereo not drawn) [Compound 472] | 2 | 8 | 9 | 9 | 10 | 10 | 0 | 0 | 0 | 0 | 0 | 0 | 4 |  | 0 | 0 | 0 | 5 | 3 | 3 |  |
| COC(=O)C(C)n1c(=O)on(C(=O)N(c2ccc(F)cc2F)C(C)C)c1=O (stereo not drawn) [Compound 463] | 0 | 2 | 0 | 0 | 2 | 4 | 0 | 0 | 0 | 0 | 0 | 0 | 2 |  | 0 | 0 | 0 | 0 | 0 | 0 |  |
| CCOC(=O)CC(C(=O)OCC)n1c(=O)on(C(=O)N(c2ccc(F)cc2F)C(C)C)c1=O (stereo not drawn) [Compound 465] | 6 | 8 | 2 | 3 | 6 | 10 | 0 | 2 | 0 | 0 | 0 | 0 | 2 |  | 0 | 0 | 0 | 0 | 0 | 1 |  |
| COCC(OC)n1c(=O)on(C(=O)N(c2ccc(F)cc2)C(C)C)c1=O (stereo not drawn) [Compound 446] | 8 | 9 | 5 | 7 | 8 | 10 | 4 | 8 | 0 | 0 | 0 | 0 | 3 | 3 | 0 | 0 | 0 | 9 | 2 | 2 | Bedstraw plant response rating [4]: 0 |
| CC(C)N(C(=O)n1oc(=O)n(C2CCCCCC2)c1=O)C1=CCCCC1 [Compound 428] | 3 | 4 |  | 0 | 0 | 2 |  | 0 |  |  |  |  | 2 | 3 |  | 0 | 0 | 0 |  | 1 | Plant response rating, Blackgrass [1, 17]: 0; Blackgrass plant response rating ([1]; Rate 62 g/ha, Postemergence, scale of 0 to 10 where 0 is no effect and 10 is complete control): 0; Rice plant response rating ([2]; Postemergence block (flood test species), Rate 250 g/ha, scale 0 to 10): 2; Rice plant response rating ([2]; Postemergence section (flood test species), Rate 500 g/ha, scale of 0 to 10 where 0 is no effect and 10 is complete control): 2; Rice plant response rating ([2]; Rate 125 g/ha, Postemergence section (flood test species), scale 0 to 10, 0 is no effect, 10 is complete control): 0; Plant response rating, Morningglory [3, 17]: 0 |
| COC(CCl)n1c(=O)on(C(=O)N(c2ccc(Cl)cc2)C(C)C)c1=O (stereo not drawn) [Compound 458] | 8 | 8 | 6 | 8 | 8 | 9 | 0 | 3 | 0 | 0 | 0 | 0 | 3 |  | 0 | 0 | 0 | 0 | 0 | 0 |  |

Reference: patent US6737383B1, “Herbicidal oxadiazolidines” (priority 1999, dated 2004)
